Molecules are shown by their SMILES.

For one experiment, the target named is T1, MusiCSP1.
T1 construct: pET32a(+) BamHI/HindIII fusion (about 31 kDa) in E. coli BL21(DE3), Ni-NTA, His-tag fusion cut off with enterokinase
The experiment in a line: 1-NPN fluorescence displacement. It is filed as binding, Megalurothrips usitatus. To be noted: 2 μM protein, 2 μM 1-NPN; ligand 2-16 μM; competitive with 1-NPN. The text has this: 1-NPN fluorescence displacement on MusiCSP1
Regarding `O=CCCc1ccccc1` [3-Benzene propanal], the affinity, expressed as Ki, was 38.6 µM.
Consider `CCCCCC(=O)CC` [3-Octanone], for which affinity was put at a Ki of 59.6 µM.
For the molecule `Cc1occc(=O)c1O` [3-hydroxy-2-Methyl-4-pvrone], affinity was put at a Ki of 25.4 µM.
`CC(C)=CCC/C(C)=C/CO` [Geraniol]: the Ki (in general, a dissociation constant, usually derived from enzyme kinetics or from competition with a known ligand) was 36.5 µM.
Take `CC(C)=CCC/C(C)=C\CO` [Nerol]: the Ki came out at 80 µM.
The same measure, in the same setting: the value for `Cc1ccccc1C` [O-Xylene] was 31 µM; that for `COc1ccc(C=O)cc1` [P-Anisaldehyde] was 42.8 µM.
`C=C1CC/C=C(\C)CC[C@@H]2[C@@H]1CC2(C)C` [β-Caryophyllene]: the affinity corresponds to a Ki of 121 µM.
With `CC(C)=CCCC(C)CCO` (stereo not drawn) [β-citronellol], affinity was put at a Ki of 38.6 µM. This Ki lies about 3.1-fold lower than the previous one.

The next experiment concerns the target T1, MusiCSP1. The experiment in a line: fluorescent probe titration, Scatchard. To be noted: excitation 337 nm; labelled compound (fluorescent probe). The class given is binding, Megalurothrips usitatus.
Consider `c1ccc(Nc2cccc3ccccc23)cc1` [1-NPN], for which binding was put at a Kd of 8.36 µM.

Source of the values: article PMC9549282, “Transcriptome analysis of megalurothrips usitatus (Bagnall) identifies olfactory genes with ligands binding characteristics of MusiOBP1 and MusiCSP1” (Frontiers in Physiology, 2022).
